Test results taken from ChEMBL document CHEMBL3272000, “Local anesthetics. 2-Diethylamino-2',6'-acylxylidides” (J Med Chem, 1976).

Experiments:
[1] = tested on: Rattus norvegicus; assay: Local anesthetic activity in rat assessed as frequency of motor activity block at 2 % injected around sciatic nerve; assay type: functional
[2] = tested on: Rattus norvegicus; assay: Local anesthetic activity in rat assessed as frequency of motor activity block at 0.125 % injected around sciatic nerve; assay type: functional
[3] = tested on: Rattus norvegicus; assay: Local anesthetic activity in rat assessed as time duration of motor activity block at 0.25 % injected around sciatic nerve; assay type: functional
[4] = tested on: Rattus norvegicus; assay: Local anesthetic activity in rat assessed as time duration of motor activity block at 0.50 % injected around sciatic nerve; assay type: functional
[5] = tested on: Rattus norvegicus; assay: Local anesthetic activity in rat assessed as time duration of motor activity block at 1 % injected around sciatic nerve; assay type: functional
[6] = tested on: Rattus norvegicus; assay: Local anesthetic activity in rat assessed as time duration of motor activity block at 2 % injected around sciatic nerve; assay type: functional
[7] = tested on: Rattus norvegicus; assay: Local anesthetic activity in rat assessed as time duration of motor activity block at 0.125 % injected around sciatic nerve; assay type: functional
[8] = Toxicity in ip dosed rat; assay type: organism-based; details: in vivo
[9] = Ionization constant, pKa of the compound; assay type: physicochemical
[10] = tested on: Rattus norvegicus; assay: Local anesthetic activity in rat assessed as frequency of motor activity block at 0.25 % injected around sciatic nerve; assay type: functional
[11] = tested on: Rattus norvegicus; assay: Local anesthetic activity in rat assessed as frequency of motor activity block at 0.50 % injected around sciatic nerve; assay type: functional
[12] = tested on: Rattus norvegicus; assay: Local anesthetic activity in rat assessed as frequency of motor activity block at 1 % injected around sciatic nerve; assay type: functional

SMILES	Activity [1] [%]	Activity [2] [%]	Time [3] [min]	Time [4] [min]	Time [5] [min]	Time [6] [min]	Time [7] [min]	LD50 [8] [mg/kg]	pKa [9]	Activity [10] [%]	Activity [11] [%]	Activity [12] [%]
CCN(CC)C(C)C(=O)Nc1c(C)cccc1C (stereo unspecified)	100	100	92	104	114	160	82	89	8.12	100	100	100
CCC(C(=O)Nc1c(C)cccc1C)N(CC)CC.Cl (stereo unspecified)	100	100	235	297	308	318	156	54	7.91	100	100	100
CCCC(C(=O)Nc1c(C)cccc1C)N(CC)CC.Cl (stereo unspecified)	100	100	123	140	179	268	117	51	7.89	100	100	100
CCCCC(C(=O)Nc1c(C)cccc1C)N(CC)CC.Cl (stereo unspecified)	80	80	111	119	196	246	92	44	7.81	60	100	100
CCN(CC)CC(=O)Nc1c(C)cccc1C [LIDOCAINE]	100	–	102	123	162	185	–	–	–	100	100	100
